Where two headings read alike, the source gives them in different places.
Tests used:
[1] = target: T1, farnesyl protein transferase (FPT), partially purified from rat brain (Rattus norvegicus, UniProt Q02293+Q04631); assay: Inhibition of farnesyl protein transferase (transfer of [3H]farnesyl to Ras-CVLS); assay type: biochemical; conditions: for IC50: read-out: FPT IC50
T1 construct: were partially purified from rat brain by ammonium sulfate fractionation followed by Q-Sepharose
Method in brief: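 Partially purified farnesyl protein transferase with His6-tagged val12-Ha-Ras-CVLS substrate and [3H]farnesyl pyrophosphate, 30 min at room temperature. Stopped with SDS/TCA, precipitated Ras collected on GF/C filters; percent inhibition relative to DMSO vehicle control.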

[2] = system: Normal human HEPM fibroblasts; assay: Cell Mat Assay: density of mat cells (mIC50); assay type: cell-based
Description: (§1) Compound-induced colony inhibition was assayed by addition of serial dilutions of compound directly to the growth medium 24 h after tumor cell planting, and incubating cells for an additional 14 d to allow colony formation. Assays were terminated by rinsing monolayers twice with phosphate-buffered saline (PBS), fixing the monolayers with a 1% glutaraldehyde solution in PBS, then visualizing tumor cells by staining with X-Gal (Price, J., et al., Lineage analysis in the vertebrate nervous system by retrovirus-mediated gene transfer, Proc. Natl. Acad. Sci.84, 156-160(1987)). […] Both IC50 values were obtained by determining the density of tumor cells and mat cells by visual inspection and enumeration of cells per colony and the number of colonies under the microscope.

[3] = system: T24-BAG4 human bladder carcinoma cells expressing an activated H-ras gene; assay: Cell Mat Assay: tumor cell colony inhibition (tIC50); assay type: cell-based; conditions: inhibition of tumor cell growth
Description: as §1

[4] = Ras-CVLS farnesylation, partially purified rat brain FPT

T1 sequence (Q02293 whole entry, one chain of several): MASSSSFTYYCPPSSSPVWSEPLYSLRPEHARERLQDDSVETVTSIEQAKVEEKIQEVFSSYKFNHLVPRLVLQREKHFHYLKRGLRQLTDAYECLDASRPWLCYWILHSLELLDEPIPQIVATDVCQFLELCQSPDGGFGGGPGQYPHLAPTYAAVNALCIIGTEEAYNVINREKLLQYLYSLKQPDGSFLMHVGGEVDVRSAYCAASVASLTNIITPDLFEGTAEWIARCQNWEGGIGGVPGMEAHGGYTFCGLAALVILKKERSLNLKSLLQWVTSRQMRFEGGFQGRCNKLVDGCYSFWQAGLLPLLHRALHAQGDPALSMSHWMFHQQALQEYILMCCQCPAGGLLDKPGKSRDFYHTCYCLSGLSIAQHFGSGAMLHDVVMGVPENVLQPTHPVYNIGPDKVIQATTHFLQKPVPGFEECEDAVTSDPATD

Row | Structure (SMILES) | IC50 ([1]; enzyme inhibition) | IC50 [1, 4] | also measured
1 | NC(=O)N1CCCC(CC(=O)N2CCN(C3c4ccc(Cl)cc4CCc4cccnc43)CC2)C1 (centres unmarked) [Example 431-F] | 1750 nM |  | 
2 | CC(C)(C)NC(=O)N1CCC(CC(=O)N2CCN(C3c4ccc(Cl)cc4CCc4cccnc43)CC2)CC1 (centres unmarked) [Example 431-D] | 1000 nM |  | 
3 | O=C(C1CCSCC1)N1CCC(=C2c3ccc(Cl)cc3CCc3cccnc32)CC1 [Example 103] |  | 4600 nM | 
4 | O=C(Cc1ccncc1)N1CCC(=C2c3ccc(Cl)cc3CCc3cc(Cl)cnc32)CC1 [180 (5.47)] |  |  | IC50 [2]: > 50000 nM; IC50 [3]: 18000 nM
5 | CN1CCCC(C(=O)N2CCN(C3c4ccc(Cl)cc4CCc4cccnc43)CC2)C1 (centres unmarked) [Example 195] |  | 6800 nM | 
6 | CC(=O)N1CCC(=C2c3ccc(Cl)cc3CCc3cc(C(C)(C)C)cnc32)CC1 [Example 66] |  |  | FPT inhibition ([1]; at 50 μM): 22% at 50 μM
7 | CC(=O)N1CCC(=C2c3ccc(Cl)cc3CCc3c(C)cc[n+]([O-])c32)CC1 [Example 132] |  |  | FPT inhibition ([1]; at 15 μM): 22% at 15 μM
8 | CN1CCCC(CC(=O)N2CCC(=C3c4ccc(Cl)cc4CCc4cc(F)cnc43)CC2)C1 (centres unmarked) [Example 411-S] | 2100 nM |  | 
9 | O=C(c1cncc2ccccc12)N1CCC(=C2c3ccc(Cl)cc3CCc3cccnc32)CC1 [Example 32] |  | 8700 nM | 
10 | O=C(Cc1ccncc1)N1CCC(C2c3ccc(Cl)cc3C([N+](=O)[O-])=Cc3cccnc32)CC1 (centres unmarked) [Example 410-L] |  | 2900 nM | 
11 | COC(=O)c1ccc(C(=O)N2CCC(=C3c4ccc(Cl)cc4CCc4cccnc43)CC2)cc1 [Example 13] |  | 4500 nM | 
12 | O=C(c1c[nH]c2ccccc12)N1CCN(C2c3ccc(Cl)cc3CCc3cccnc32)CC1 (centres unmarked) [Example 368] |  |  | FPT inhibition ([1]; at 12 μM): 14 @12 μM %
13 | CCNC(=O)N1CCC(CC(=O)N2CCN(C3c4ccc(Cl)cc4CCc4cccnc43)CC2)CC1 (centres unmarked) [Example 431-B] | 920 nM |  | 
14 | Cc1ccc(S(=O)(=O)NC(=O)N2CCC(=C3c4ccc(Cl)cc4CCc4cccnc43)CC2)cc1 [Example 120] |  |  | FPT inhibition ([1]; at 39 μM): 4% at 39 μM
15 | CC(C)(C)OC(=O)N1CCC(C(=O)N2CCN(C3c4ccc(Cl)cc4CCc4cccnc43)CC2)CC1 (centres unmarked) [Example 202] |  |  | FPT inhibition ([1]; at 11 μM): 20% @

Further lines, with some results ahead:

Row | IC50 ([1]; enzyme inhibition) | IC50 [1, 4] | Structure (SMILES) | also measured
16 | 3500 nM |  | COC(=O)c1ccc2c(c1)CCc1cccnc1C2=C1CCN(C(=O)Cc2ccncc2)CC1 [Example 434-A] | 
17 | 580 nM |  | O=C(Cc1cccnc1)N1CCC(=C2c3ccc(Cl)cc3CCc3cc(Cl)cnc32)CC1 [Example 411-T] | 
18 |  | 5900 nM | Nc1ccc(C(=O)N2CCC(=C3c4ccc(Cl)cc4CCc4cccnc43)CC2)cc1 [Example 21] | 
19 |  | 320 nM | CC(C)(C(=O)N1CCC(=C2c3ccc(Cl)cc3CCc3cc(Br)cnc32)CC1)c1ccncc1 [Example 361] | 
20 | 1120 nM |  | O=C(Cc1ccc[n+]([O-])c1)N1CCC(=C2c3ccc(Cl)cc3CCc3cc(Cl)cnc32)CC1 [Example 411-U] | 
21 | 1800 nM |  | O=C(Cc1ccnc(N2CCCCC2)c1)N1CCC(=C2c3ccc(Cl)cc3CCc3cc(Br)cnc32)CC1 [Example 411-FF] | 
22 | ~10000 nM |  | O=C(Cc1ccc[n+]([O-])c1)N1CCC(=C2c3ccc(Cl)cc3CCc3cc(F)cnc32)CC1 [Example 411-Q] | FPT inhibition at the concentration in parentheses ([1]; (4.3) μM): 33 (4.3)
23 |  | 7800 nM | CC(=O)N1CCC(=C2c3ccc(Cl)cc3CCc3cc(Cl)cnc32)CC1 [Example 62] | 
24 |  | 2060 nM | O=C(Cc1ccncc1)N1CCC(=C2c3ccc(Cl)cc3CCc3ccc[n+]([O-])c32)CC1 [Example 230] | 
25 |  | 2600 nM | N#CCC(=O)N1CCC(=C2c3ccc(Cl)cc3CCc3cc(Br)cnc32)CC1 [Example 400-A] | 
26 |  | 11500 nM | COc1ccnc2c1CCc1cc(Cl)ccc1C2=C1CCN(C(C)=O)CC1 [Example 136] | 
27 |  | 2200 nM | Cn1nnnc1Sc1ccnc2c1CCc1cc(Cl)ccc1C2=C1CCN(C(=O)Cc2cccnc2)CC1 [Example 259] | 
28 |  | 7300 nM | O=C(c1ccnc(Cl)c1)N1CCC(=C2c3ccc(Cl)cc3CCc3cccnc32)CC1 [Example 28] | 
29 |  | 8300 nM | CN(C)c1cc(C(=O)N2CCC(=C3c4ccc(Cl)cc4CCc4cccnc43)CC2)ccn1 [Example 110] | 
30 |  | 520 nM | O=C(Cn1cncn1)N1CCC(=C2c3ccc(Cl)cc3CCc3cc(Br)cnc32)CC1 [Example 412] | 
